Results: EP0217101A1, “Substituted diphenyl ethers, process for their preparation and their use as herbicides” (HOECHST AKTIENGESELLSCHAFT, priority 1985, dated 1987)

Key:
Format in all cases: in vivo
Sinapis arvensis [1] = assay: Weed control post-emergence (greenhouse pot test); details: post-emergence (three-leaf stage), 2,5 kg a.i./ha, visual rating after ca. 3-4 weeks
Text: (§1) Die Schädigung der Unkrautpflanzen bzw. die Kulturpflanzenverträglichkeit wurde gemäß einem Schlüssel bonitiert, in dem die Wirksamkeit durch Wertzahlen von 0 - 5 ausgedrückt ist. Dabei bedeutet:
(§2) Samen bzw. Rhizomstüeke von mono- und dikotylen Unkräutern wurden in Plasstiktöpfen (φ= 9 cm) in sandigem Lehmboden ausgelegt, mit Erde abgedeckt und im Gewächshaus unter guten Wachstumsbedingungen angezogen. Drei Wochen nach der Aussaat wurden die Versuchspflanzen im Dreiblattstadium behandelt. Die als Spritzpulver bzw. als Eτulsionskonzentrate formulierten erfindungsgemäßen Verbindungen wurden in verschiedenen Dosierungen mit einer Wasseraufwandmenge von umgerechnet 600-800 l/ha auf die grünen Pflanzenteile gesprüht und nach ca. 3-4 Wochen Standzeit der Versuchspflanzen im Gewächshaus unter optimalen Wachstumsbedingungen (Temperatur 23°C +/- 1°C, relative Luftfeuchte 60-80 %) die Wirkung der Präparate optisch im Vergleich zu unbehandelten Kontrollen bonitiert.

Chrysanthemum segetum [2] = assay: Weed control post-emergence (greenhouse pot test); details: post-emergence (three-leaf stage), 2,5 kg a.i./ha, visual rating after ca. 3-4 weeks
Text: as §1, §2

Avena sativa [3] = assay: Weed control post-emergence (greenhouse pot test); details: post-emergence (three-leaf stage), 2,5 kg a.i./ha, visual rating after ca. 3-4 weeks
Text: as §1, §2

Echinochloa crus-galli [4] = assay: Weed control pre-emergence (greenhouse pot test); details: pre-emergence, 2,5 kg a.i./ha, visual rating after 3-4 weeks
Text: as §1
(§3) Samen bzw. Rhizomstücke von mono- und dikotylen Unkrautpflanzen wurden in Plasstiktöpfen (0 = 9 cm) in sandiger Lehmerde ausgelegt und mit Erde abgedeckt. Die in Form von benetzbaren Pulvern oder Emulsionskonzentraten formulierten erfindungsgemäßen Verbindungen wurden dann als wäßrige Suspensionen bzw. Emulsionen mit einer Wasseraufwandmenge von umgerechnet 600-800 1/ha in unterschiedlichen Dosierungen auf die Oberfläche der Abdeckerde appliziert. Nach der Behandlung wurden die Töpfe im Gewächshaus aufgestellt und unter guten Wachstumsbedingungen für die Unkrautpflanzen gehalten (Temperatur 23 plus/minus 1 Grad Celsius, relative Luftfeuchte 60-80 %).
(§4) Die optische Bonitur der Pflanzen- bzw. Auflaufschäden erfolgte nach dem Auflaufen der Versuchspflanzen nach einer Versuchszeit von 3-4 Wochen im Vergleich zu unbehandelten Kontrollen.

Stellaria media [5] = assay: Weed control pre-emergence (greenhouse pot test); details: pre-emergence, 2,5 kg a.i./ha, visual rating after 3-4 weeks
Text: as §1, §3, §4

Sinapis arvensis [6] = assay: Weed control pre-emergence (greenhouse pot test); details: pre-emergence, 2,5 kg a.i./ha, visual rating after 3-4 weeks
Text: as §1, §3, §4

Chrysanthemum segetum [7] = assay: Weed control pre-emergence (greenhouse pot test); details: pre-emergence, 2,5 kg a.i./ha, visual rating after 3-4 weeks
Text: as §1, §3, §4

Avena sativa [8] = assay: Weed control pre-emergence (greenhouse pot test); details: pre-emergence, 2,5 kg a.i./ha, visual rating after 3-4 weeks
Text: as §1, §3, §4

Echinochloa crus-galli [9] = assay: Weed control post-emergence (greenhouse pot test); details: post-emergence (three-leaf stage), 2,5 kg a.i./ha, visual rating after ca. 3-4 weeks
Text: as §1, §2

Stellaria media [10] = assay: Weed control post-emergence (greenhouse pot test); details: post-emergence (three-leaf stage), 2,5 kg a.i./ha, visual rating after ca. 3-4 weeks
Text: as §1, §2

Row | Structure (SMILES) | Herbizide Wirkung im Nachauflauf SIA (Sinapis arvensis [1]) | Herbizide Wirkung im Nachauflauf CRS (Chrysanthemum segetum [2]) | Herbizide Wirkung im Nachauflauf AS (Avena sativa [3]) | Herbizide Wirkung im Vorauflauf ECG (Echinochloa crus-galli [4]) | Herbizide Wirkung im Vorauflauf STM (Stellaria media [5]) | Herbizide Wirkung im Vorauflauf SIA (Sinapis arvensis [6]) | Herbizide Wirkung im Vorauflauf CRS (Chrysanthemum segetum [7]) | Herbizide Wirkung im Vorauflauf AS (Avena sativa [8]) | Herbizide Wirkung im Nachauflauf ECG (Echinochloa crus-galli [9]) | Herbizide Wirkung im Nachauflauf STM (Stellaria media [10])
1 | CP(C)(=O)COC(OC(=O)c1cc(Oc2ccc(C(F)(F)F)cc2Cl)ccc1[N+](=O)[O-])C(Cl)(Cl)Cl (centres unmarked) [compound 46] | 5 (= 80 - 100 % Wirkung bzw. Schaden) | 5 (= 80 - 100 % Wirkung bzw. Schaden) | 2 (= 20 - 40 % Wirkung bzw. Schaden) | 5 (= 80 - 100 % Wirkung bzw. Schaden) | 1 (= 0 - 20 % Wirkung bzw. Schaden) | 5 (= 80 - 100 % Wirkung bzw. Schaden) | 5 (= 80 - 100 % Wirkung bzw. Schaden) | 4 (= 60 - 80 % Wirkung bzw. Schaden) | 2 (= 20 - 40 % Wirkung bzw. Schaden) | 2 (= 20 - 40 % Wirkung bzw. Schaden)
2 | CCOC(=O)C(C)(C)OC(OC(=O)c1cc(Oc2ccc(C(F)(F)F)cc2Cl)ccc1[N+](=O)[O-])C(Cl)(Cl)Cl (centres unmarked) [compound 30] | 5 (= 80 - 100 % Wirkung bzw. Schaden) | 5 (= 80 - 100 % Wirkung bzw. Schaden) | 5 (= 80 - 100 % Wirkung bzw. Schaden) | 5 (= 80 - 100 % Wirkung bzw. Schaden) | 2 (= 20 - 40 % Wirkung bzw. Schaden) | 5 (= 80 - 100 % Wirkung bzw. Schaden) | 5 (= 80 - 100 % Wirkung bzw. Schaden) | 5 (= 80 - 100 % Wirkung bzw. Schaden) | 4 (= 60 - 80 % Wirkung bzw. Schaden) | 5 (= 80 - 100 % Wirkung bzw. Schaden)
3 | CCOC(=O)C(C)OC(OC(=O)c1cc(Oc2ccc(C(F)(F)F)cc2Cl)ccc1[N+](=O)[O-])C(Cl)(Cl)Cl (centres unmarked) [compound 23] | 5 (= 80 - 100 % Wirkung bzw. Schaden) | 5 (= 80 - 100 % Wirkung bzw. Schaden) | 1 (= 0 - 20 % Wirkung bzw. Schaden) | 5 (= 80 - 100 % Wirkung bzw. Schaden) | 5 (= 80 - 100 % Wirkung bzw. Schaden) | 5 (= 80 - 100 % Wirkung bzw. Schaden) | 5 (= 80 - 100 % Wirkung bzw. Schaden) | 5 (= 80 - 100 % Wirkung bzw. Schaden) | 2 (= 20 - 40 % Wirkung bzw. Schaden) | 5 (= 80 - 100 % Wirkung bzw. Schaden)
4 | COC(=O)CC(OC(OC(=O)c1cc(Oc2ccc(C(F)(F)F)cc2Cl)ccc1[N+](=O)[O-])C(Cl)(Cl)Cl)C(=O)OC (centres unmarked) [compound 31] | 5 (= 80 - 100 % Wirkung bzw. Schaden) | 5 (= 80 - 100 % Wirkung bzw. Schaden) | 4 (= 60 - 80 % Wirkung bzw. Schaden) | 5 (= 80 - 100 % Wirkung bzw. Schaden) | 2 (= 20 - 40 % Wirkung bzw. Schaden) | 5 (= 80 - 100 % Wirkung bzw. Schaden) | 5 (= 80 - 100 % Wirkung bzw. Schaden) | 5 (= 80 - 100 % Wirkung bzw. Schaden) | 3 (= 40 - 60 % Wirkung bzw. Schaden) | 5 (= 80 - 100 % Wirkung bzw. Schaden)
5 | CCOC(=O)C(C)OC(OC(=O)c1cc(Oc2c(Cl)cc(C(F)(F)F)cc2Cl)ccc1[N+](=O)[O-])C(Cl)(Cl)Cl (centres unmarked) [compound 34] | 5 (= 80 - 100 % Wirkung bzw. Schaden) | 5 (= 80 - 100 % Wirkung bzw. Schaden) | 5 (= 80 - 100 % Wirkung bzw. Schaden) | 1 (= 0 - 20 % Wirkung bzw. Schaden) | 5 (= 80 - 100 % Wirkung bzw. Schaden) | 5 (= 80 - 100 % Wirkung bzw. Schaden) | 5 (= 80 - 100 % Wirkung bzw. Schaden) | 2 (= 20 - 40 % Wirkung bzw. Schaden) | 4 (= 60 - 80 % Wirkung bzw. Schaden) | 5 (= 80 - 100 % Wirkung bzw. Schaden)
